Measurements reported in publication PMC9655245, “Dual Inhibitors of AChE and BACE-1 for Reducing Aβ in Alzheimer’s Disease: From In Silico to In Vivo” (International Journal of Molecular Sciences, 2022).

Legend:
Format in all cases: biochemical
[1] = molecular target: T1, AChE (acetylcholinesterase) (Homo sapiens, UniProt P22303); assay: Ellman assay, absorbance at […] nm, 7-point dose response
T1 construct: recombinant, produced in stably expressing CHO-K1 cell line

[2] = molecular target: T2, BACE-1 (β-secretase, beta-site APP cleaving enzyme 1) (Homo sapiens, UniProt P56817); assay: fluorogenic Mca/Dnp peptide cleavage, single point
T2 construct: gene BACE1; commercial recombinant enzyme (R&D Systems 931-AS)
T2 sequence (P56817 46-457 limits assumed): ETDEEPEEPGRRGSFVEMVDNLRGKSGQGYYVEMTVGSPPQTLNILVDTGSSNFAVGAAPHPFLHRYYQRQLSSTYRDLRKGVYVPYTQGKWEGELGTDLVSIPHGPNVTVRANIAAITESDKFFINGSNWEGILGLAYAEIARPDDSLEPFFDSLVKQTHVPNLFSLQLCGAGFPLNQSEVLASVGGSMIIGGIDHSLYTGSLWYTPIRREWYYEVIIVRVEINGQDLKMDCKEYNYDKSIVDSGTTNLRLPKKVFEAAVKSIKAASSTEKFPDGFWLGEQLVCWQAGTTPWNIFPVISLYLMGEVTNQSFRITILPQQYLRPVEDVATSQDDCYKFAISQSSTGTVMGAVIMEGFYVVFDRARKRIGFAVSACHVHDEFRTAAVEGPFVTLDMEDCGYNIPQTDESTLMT
Text: fluorogenic Mca/Dnp peptide cleavage, single point on BACE-1 (β-secretase, beta-site APP cleaving enzyme 1)

[3] = molecular target: T2, BACE-1 (β-secretase, beta-site APP cleaving enzyme 1); assay: fluorogenic Mca/Dnp peptide cleavage, 5-point dose response
[4] = molecular target: T1, AChE (acetylcholinesterase); assay: Ellman assay, absorbance at […] nm, single point

T1 sequence (P22303 32-614): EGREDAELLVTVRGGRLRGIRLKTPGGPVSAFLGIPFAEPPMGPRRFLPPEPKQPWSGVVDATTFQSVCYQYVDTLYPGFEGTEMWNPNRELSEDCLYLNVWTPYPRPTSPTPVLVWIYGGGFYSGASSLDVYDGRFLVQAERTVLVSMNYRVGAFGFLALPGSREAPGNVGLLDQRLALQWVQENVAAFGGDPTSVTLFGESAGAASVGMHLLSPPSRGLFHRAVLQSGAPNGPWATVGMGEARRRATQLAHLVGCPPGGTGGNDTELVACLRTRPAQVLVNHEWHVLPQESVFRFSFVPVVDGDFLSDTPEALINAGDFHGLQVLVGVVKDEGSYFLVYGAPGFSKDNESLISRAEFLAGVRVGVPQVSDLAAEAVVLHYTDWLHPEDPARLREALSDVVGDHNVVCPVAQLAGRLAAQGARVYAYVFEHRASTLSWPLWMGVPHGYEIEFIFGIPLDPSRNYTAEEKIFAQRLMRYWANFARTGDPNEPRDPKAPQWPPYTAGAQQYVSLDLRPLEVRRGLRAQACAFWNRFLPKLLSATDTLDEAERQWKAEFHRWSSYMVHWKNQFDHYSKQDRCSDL

Structure (SMILES) | IC50 [1] [µM] | inhibition at 100 µM [2] [%] | IC50 [3] [µM] | inhibition at 10 µM [4] [%]
Cc1ccc(Cn2c(=O)c(N3CCC(C(=O)NCCN4CCCCC4C)CC3)nc3ccccc32)cc1 (stereo not drawn) [compound 1, C700-2595] | 8.2 | 19 | – | –
CCn1c(=O)c(N2CCCC(C(=O)NC3CCN(Cc4ccccc4)CC3)C2)nc2ccccc21 (stereo not drawn) [compound 2, F681-0222] | 4.4 | – | 63 | –
Cn1c(=O)c(N2CCCC(C(=O)NC3CCN(Cc4ccccc4)CC3)C2)nc2ccccc21 (stereo not drawn) [compound 3, F681-0412] | 6.7 | – | 55 | –
CCN1CCCC1CNC(=O)CCc1nnc2n(CCc3ccccc3)c(=O)c3ccccc3n12 (stereo not drawn) [compound 4, C741-0335] | 9.7 | 6 | – | –
COc1cccc(N2CC(C(=O)Nc3ccccc3CN(C)C3CCCCC3)CC2=O)c1 (stereo not drawn) [compound 5, T6769894] | – | – | 60 | 19
CCOc1cccc(C2CC(c3ccc(C)cc3)=NC3(CCN(C(C)=O)CC3)N2)c1O (stereo not drawn) [compound 6, Z274-0419] | – | – | 150 | -12
